Measured values published in patent publication US8802597B2, “Herbicidal pyrimidines” (E I du Pont de Nemours and Company, priority 2003, dated 2014).

How the values were obtained:
Format in all cases: in vivo
[1] = system: pigweed (Amaranthus retroflexus); experiment: Test B pre/postemergence
Procedure, shortened: (§1)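 Test chemicals in a non-phytotoxic solvent mixture with surfactant were applied preemergence to planted seeds and postemergence to plants 2 to 18 cm tall (1- to 4-leaf stage). After 13 to 15 days in a greenhouse, injury was visually rated against untreated controls on a 0 to 100 scale.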

[2] = system: velvetleaf (Abutilon theophrasti); experiment: Test B pre/postemergence
Procedure, shortened: as §1

[3] = system: giant foxtail (Setaria faberii); experiment: Test B pre/postemergence
Procedure, shortened: as §1

[4] = system: corn (Zea mays); experiment: Test B pre/postemergence
Procedure, shortened: as §1

[5] = system: cocklebur (Xanthium strumarium); experiment: Test B pre/postemergence
Procedure, shortened: as §1

[6] = system: morningglory (Ipomoea coccinea); experiment: Test B pre/postemergence
Procedure, shortened: as §1

[7] = system: wheat (Triticum aestivum); experiment: Test B pre/postemergence
Procedure, shortened: as §1

[8] = system: Surinam grass (Brachiaria decumbens); experiment: Test B pre/postemergence
Procedure, shortened: as §1

[9] = system: barnyardgrass (Echinochloa crus-galli); experiment: Test B pre/postemergence
Procedure, shortened: as §1

[10] = system: lambsquarters (Chenopodium album); experiment: Test B pre/postemergence
Procedure, shortened: as §1

[11] = system: crabgrass (Digitaria sanguinalis); experiment: Test B pre/postemergence
Procedure, shortened: as §1

[12] = system: blackgrass (Alopecurus myosuroides); experiment: Test B postemergence; conditions: for Blackgrass plant response rating: scale 0 to 100 (0 no effect, 100 complete control)
Procedure, shortened: as §1

[13] = system: wild oat (Avena fatua); experiment: Test B postemergence; conditions: for Oat, Wild plant response rating: scale 0 to 100 (0 no effect, 100 complete control)
Procedure, shortened: as §1

[14] = system: umbrella sedge (Cyperus difformis); experiment: Test B flooded paddy test; conditions: Flood, scale 0 to 100
Procedure, shortened: (§2)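 Plants were grown to the 2-leaf stage before treatment, then kept in a greenhouse for 13 to 15 days. Injury was rated visually against untreated controls on a 0 to 100 scale, where 0 is no effect and 100 is complete control.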

[15] = system: rice (Oryza sativa); experiment: Test B flooded paddy test; conditions: Flood, scale 0 to 100
Procedure, shortened: as §2

[16] = system: duck salad (Heteranthera limosa); experiment: Test B flooded paddy test; conditions: Flood, scale 0 to 100
Procedure, shortened: as §2

[17] = system: barnyardgrass (Echinochloa crus-galli); experiment: Test B flooded paddy test; conditions: Flood
Procedure, shortened: as §2

[18] = Postemergence, 125 g ai/ha, scale 0 to 100 (0 no effect, 100 complete control)
[19] = Postemergence, 500 g ai/ha, scale 0 to 100
[20] = Preemergence, 125 g ai/ha, scale 0 to 100 (0 no effect, 100 complete control)
[21] = Preemergence, 500 g ai/ha, scale 0 to 100 (0 no effect, 100 complete control)
[22] = Postemergence, 62 g ai/ha, scale 0 to 100 (0 no effect, 100 complete control)
[23] = Preemergence, 62 g ai/ha, scale 0 to 100, 0 no effect, 100 complete control

In the case of `CNN=Cc1nc(C2CC2)nc(N)c1Br` [Compound 49], the “Pigweed plant response rating” value [1, 18] is reported as 90, the “Plant response rating, Pigweed” value [1, 19] is reported as 90 and the “Plant response rating, Pigweed” value [1, 20] is reported as 90. For the same compound, the “Pigweed plant response rating” value [1, 21] was 100, the “Velvetleaf plant response rating” value [2, 18] was 50 and the “Plant response rating, Velvetleaf” value [2, 19] was 80. For the same compound, the “Plant response rating, Velvetleaf” value [2, 20] was 80, the “Velvetleaf plant response rating” value [2, 21] was 90 and the “Foxtail, Giant plant response rating” value [3, 18] was 10. For the same compound, the “Plant response rating, Foxtail, Giant” value [3, 19] was 70, the “Plant response rating, Foxtail, Giant” value [3, 20] was 40 and the “Foxtail, Giant plant response rating” value [3, 21] was 70. For the same compound, the “Corn plant response rating” value [4, 18] was 0, the “Plant response rating, Corn” value [4, 19] was 30 and the “Plant response rating, Corn” value [4, 20] was 10. For the same compound, the “Corn plant response rating” value [4, 21] was 40, the “Cocklebur plant response rating” value [5, 18] was 90 and the “Plant response rating, Cocklebur” value [5, 19] was 100. For the same compound, the “Plant response rating, Cocklebur” value [5, 20] was 80, the “Cocklebur plant response rating” value [5, 21] was 90 and the “Morningglory plant response rating” value [6, 18] was 90. The “Plant response rating, Morningglory” value [6, 19] was 100, the “Plant response rating, Morningglory” value [6, 20] was 80 and the “Morningglory plant response rating” value [6, 21] was 100. For the same compound, the “Wheat plant response rating” value [7, 18] was 30, the “Plant response rating, Wheat” value [7, 19] was 40 and the “Plant response rating, Wheat” value [7, 20] was 30. For the same compound, the “Plant response rating, Wheat” value [7, 21] was 70, the “Surinam Grass plant response rating” value [8, 18] was 10 and the “Plant response rating, Surinam Grass” value [8, 19] was 60. For the same compound, the “Plant response rating, Surinam Grass” value [8, 20] was 40, the “Surinam Grass plant response rating” value [8, 21] was 60 and the “Barnyardgrass plant response rating” value [9, 18] was 30. The “Plant response rating, Barnyardgrass” value [9, 19] was 70, the “Plant response rating, Barnyardgrass” value [9, 20] was 30 and the “Barnyardgrass plant response rating” value [9, 21] was 60. The “Lambsquarters plant response rating” value [10, 18] was 80, the “Plant response rating, Lambsquarters” value [10, 19] was 90 and the “Plant response rating, Lambsquarters” value [10, 20] was 90. The “Lambsquarters plant response rating” value [10, 21] was 100, the “Crabgrass plant response rating” value [11, 18] was 30 and the “Plant response rating, Crabgrass” value [11, 19] was 80. For the same compound, the “Plant response rating, Crabgrass” value [11, 20] was 80, the “Crabgrass plant response rating” value [11, 21] was 90 and the “Blackgrass plant response rating” value ([12]; 125 g ai/ha) was 20. For the same compound, the “Plant response rating, Blackgrass” value ([12]; 500 g ai/ha, scale 0 to 100) was 50, the “Oat, Wild plant response rating” value ([13]; 125 g ai/ha) was 30 and the “Plant response rating, Oat, Wild” value ([13]; 500 g ai/ha, scale 0 to 100) was 60. The “Plant response rating, Sedge, Umbrella” value ([14]; 1000 g ai/ha) was 70, the “Plant response rating, Rice” value ([15]; 1000 g ai/ha) was 30 and the “Plant response rating, Ducksalad” value ([16]; 1000 g ai/ha) was 60. The “Plant response rating, Barnyardgrass” value ([17]; 1000 g ai/ha, scale 0 (no effect) to 100 (complete control)) was 50.

With `COC(=O)c1nc(-c2ccc(Cl)cc2)nc(N)c1Br` [Compound 83] the “Pigweed plant response rating” value [1, 22] was 100, the “Pigweed plant response rating” value [1, 18] was 100 and the “Plant response rating, Pigweed” value [1, 23] was 80. The “Plant response rating, Pigweed” value [1, 20] was 100, the “Velvetleaf plant response rating” value [2, 22] was 80 and the “Velvetleaf plant response rating” value [2, 18] was 90. The “Plant response rating, Velvetleaf” value [2, 23] was 50, the “Plant response rating, Velvetleaf” value [2, 20] was 60 and the “Foxtail, Giant plant response rating” value [3, 22] was 40. For the same compound, the “Foxtail, Giant plant response rating” value [3, 18] was 50, the “Plant response rating, Foxtail, Giant” value [3, 23] was 0 and the “Plant response rating, Foxtail, Giant” value [3, 20] was 10. The “Corn plant response rating” value [4, 22] was 10, the “Corn plant response rating” value [4, 18] was 10 and the “Plant response rating, Corn” value [4, 23] was 0. The “Plant response rating, Corn” value [4, 20] was 0, the “Cocklebur plant response rating” value [5, 22] was 90 and the “Cocklebur plant response rating” value [5, 18] was 100. For the same compound, the “Plant response rating, Cocklebur” value [5, 23] was 10, the “Plant response rating, Cocklebur” value [5, 20] was 50 and the “Morningglory plant response rating” value [6, 22] was 60. The “Morningglory plant response rating” value [6, 18] was 100, the “Plant response rating, Morningglory” value [6, 23] was 0 and the “Plant response rating, Morningglory” value [6, 20] was 10. For the same compound, the “Wheat plant response rating” value [7, 22] was 0, the “Wheat plant response rating” value [7, 18] was 30 and the “Plant response rating, Wheat” value [7, 23] was 20. The “Plant response rating, Wheat” value [7, 20] was 50, the “Surinam Grass plant response rating” value [8, 22] was 50 and the “Surinam Grass plant response rating” value [8, 18] was 60. For the same compound, the “Plant response rating, Surinam Grass” value [8, 23] was 0, the “Plant response rating, Surinam Grass” value [8, 20] was 10 and the “Barnyardgrass plant response rating” value [9, 22] was 50. For the same compound, the “Barnyardgrass plant response rating” value [9, 18] was 80, the “Plant response rating, Barnyardgrass” value [9, 23] was 20 and the “Plant response rating, Barnyardgrass” value [9, 20] was 30. For the same compound, the “Lambsquarters plant response rating” value [10, 22] was 100, the “Lambsquarters plant response rating” value [10, 18] was 100 and the “Plant response rating, Lambsquarters” value [10, 23] was 70. For the same compound, the “Plant response rating, Lambsquarters” value [10, 20] was 90, the “Crabgrass plant response rating” value [11, 22] was 50 and the “Crabgrass plant response rating” value [11, 18] was 60. The “Plant response rating, Crabgrass” value [11, 23] was 30, the “Plant response rating, Crabgrass” value [11, 20] was 60 and the “Blackgrass plant response rating” value ([12]; 62 g ai/ha) was 50. For the same compound, the “Blackgrass plant response rating” value ([12]; 125 g ai/ha) was 60, the “Oat, Wild plant response rating” value ([13]; 62 g ai/ha) was 0 and the “Oat, Wild plant response rating” value ([13]; 125 g ai/ha) was 40. The “Plant response rating, Sedge, Umbrella” value ([14]; 125 g ai/ha) was 90, the “Plant response rating, Sedge, Umbrella” value ([14]; 500 g ai/ha) was 100 and the “Plant response rating, Rice” value ([15]; 125 g ai/ha) was 0. For the same compound, the “Plant response rating, Rice” value ([15]; 500 g ai/ha) was 0, the “Plant response rating, Ducksalad” value ([16]; 125 g ai/ha) was 100 and the “Plant response rating, Ducksalad” value ([16]; 500 g ai/ha) was 100. For the same compound, the “Plant response rating, Barnyardgrass” value ([17]; 125 g ai/ha, scale 0 to 100) was 0 and the “Plant response rating, Barnyardgrass” value ([17]; 500 g ai/ha, scale 0 to 100) was 0.
